Results reported in ChEMBL document CHEMBL3885881, “DrugMatrix”.

Tests used:
Rattus norvegicus [1] = species on record: Rattus norvegicus; assay: DrugMatrix - Regimen: Daily Repeat; assay type: toxicity, organism-based, Sprague-Dawley; design: regimen Daily Repeat, gender Male, age 6-8 weeks; details: in vivo, po, […], route oral GAVAGE, time 14 day
Rattus norvegicus [2] = species on record: Rattus norvegicus; assay type: toxicity, organism-based, Sprague-Dawley; details: in vivo, po, 24 h, route oral GAVAGE, time 1 day
Description: DrugMatrix - Regimen: Single

[3] = 330 mg/kg, tissue Blood, dose level High, vehicle .5 % CMC
[4] = 330 mg/kg, tissue Plasma, dose level High, vehicle .5 % CMC
[5] = 0 mg/kg, tissue Blood, dose level Control, vehicle 100 % WATER
[6] = 0 mg/kg, tissue Plasma, dose level Control, vehicle 100 % WATER

FERROCENE
ABSOLUTE BASOPHIL (Rattus norvegicus [1]; [3]): 0 CELLS/uL | ABSOLUTE EOSINOPHIL (Rattus norvegicus [1]; [3]): 150.8 CELLS/uL | ABSOLUTE LYMPHOCYTE (Rattus norvegicus [1]; [3]): 17564.8 CELLS/uL | ABSOLUTE MONOCYTE (Rattus norvegicus [1]; [3]): 546.8 CELLS/uL | ABSOLUTE SEGMENTED NEUTROPHIL (Rattus norvegicus [1]; [3]): 2837.6 CELLS/uL | BASOPHIL (Rattus norvegicus [1]; [3]): 0% | EOSINOPHIL (Rattus norvegicus [1]; [3]): 0.8% | ERYTHROCYTE COUNT (Rattus norvegicus [1]; [3]): 5.16 x10E6/uL | HEMATOCRIT (Rattus norvegicus [1]; [3]): 32.2% | HEMOGLOBIN (Rattus norvegicus [1]; [3]): 11.86 G/DL | LEUKOCYTE COUNT (Rattus norvegicus [1]; [3]): 21.1 x10E3/uL | LYMPHOCYTE (Rattus norvegicus [1]; [3]): 83.2% | MEAN CORPUSCULAR HEMOGLOBIN (Rattus norvegicus [1]; [3]): 23.1 pg | MEAN CORPUSCULAR HEMOGLOBIN CONCENTRATION (Rattus norvegicus [1]; [3]): 36.82 G/DL | MONOCYTE (Rattus norvegicus [1]; [3]): 2.6% | NEUTROPHIL (Rattus norvegicus [1]; [3]): 13.4% | NUCLEATED RED BLOOD CELLS (Rattus norvegicus [1]; [3]): 0 /100WBC | PLATELET COUNT (Rattus norvegicus [1]; [3]): 1348 x10E3/uL | ALANINE AMINOTRANSFERASE (Rattus norvegicus [1]; [4]): 39.6 u/L | ALBUMIN (Rattus norvegicus [1]; [4]): 4.42 G/DL | ALKALINE PHOSPHATASE (Rattus norvegicus [1]; [4]): 217.6 u/L | ASPARTATE AMINOTRANSFERASE (Rattus norvegicus [1]; [4]): 59.8 u/L | BLOOD UREA NITROGEN (Rattus norvegicus [1]; [4]): 15.2 mg/dL | CARBON DIOXIDE (Rattus norvegicus [1]; [4]): 25 mmol/L | CHOLESTEROL (Rattus norvegicus [1]; [4]): 87.2 mg/dL | CREATININE (Rattus norvegicus [1]; [4]): 0.19 mg/dL | GLUCOSE (Rattus norvegicus [1]; [4]): 182.6 mg/dL | LIPASE (Rattus norvegicus [1]; [4]): 10.2 u/L | PHOSPHORUS (Rattus norvegicus [1]; [4]): 12.74 mg/dL | TOTAL BILIRUBIN (Rattus norvegicus [1]; [4]): 0.22 mg/dL | TOTAL PROTEIN (Rattus norvegicus [1]; [4]): 6.84 G/DL | URIC ACID (Rattus norvegicus [1]; [4]): 2.68 mg/dL | ABSOLUTE EOSINOPHIL (Rattus norvegicus [2]; [3]): 50.33 CELLS/uL | ABSOLUTE LYMPHOCYTE (Rattus norvegicus [2]; [3]): 10757 CELLS/uL | ABSOLUTE MONOCYTE (Rattus norvegicus [2]; [3]): 373 CELLS/uL | ABSOLUTE SEGMENTED NEUTROPHIL (Rattus norvegicus [2]; [3]): 1253 CELLS/uL | BASOPHIL (Rattus norvegicus [2]; [3]): 0% | EOSINOPHIL (Rattus norvegicus [2]; [3]): 0.33% | ERYTHROCYTE COUNT (Rattus norvegicus [2]; [3]): 5.36 x10E6/uL | HEMATOCRIT (Rattus norvegicus [2]; [3]): 33.23% | HEMOGLOBIN (Rattus norvegicus [2]; [3]): 12.53 G/DL | LEUKOCYTE COUNT (Rattus norvegicus [2]; [3]): 12.43 x10E3/uL | LYMPHOCYTE (Rattus norvegicus [2]; [3]): 87% | MEAN CORPUSCULAR HEMOGLOBIN (Rattus norvegicus [2]; [3]): 23.47 pg | MEAN CORPUSCULAR HEMOGLOBIN CONCENTRATION (Rattus norvegicus [2]; [3]): 37.7 G/DL | MONOCYTE (Rattus norvegicus [2]; [3]): 3% | NEUTROPHIL (Rattus norvegicus [2]; [3]): 9.67% | NUCLEATED RED BLOOD CELLS (Rattus norvegicus [2]; [3]): 0 /100WBC | PLATELET COUNT (Rattus norvegicus [2]; [3]): 1189.67 x10E3/uL | ALANINE AMINOTRANSFERASE (Rattus norvegicus [2]; [4]): 42.67 u/L | ALBUMIN (Rattus norvegicus [2]; [4]): 4.5 G/DL | ALKALINE PHOSPHATASE (Rattus norvegicus [2]; [4]): 371.33 u/L | ASPARTATE AMINOTRANSFERASE (Rattus norvegicus [2]; [4]): 77 u/L | BLOOD UREA NITROGEN (Rattus norvegicus [2]; [4]): 11.67 mg/dL | CARBON DIOXIDE (Rattus norvegicus [2]; [4]): 26.33 mmol/L | CREATININE (Rattus norvegicus [2]; [4]): 0.18 mg/dL | LACTATE DEHYDROGENASE (Rattus norvegicus [2]; [4]): 127.67 u/L | LIPASE (Rattus norvegicus [2]; [4]): 8.33 u/L | PHOSPHORUS (Rattus norvegicus [2]; [4]): 12.47 mg/dL | POTASSIUM (Rattus norvegicus [2]; [4]): 6.09 MEQ/L | TOTAL BILIRUBIN (Rattus norvegicus [2]; [4]): 0.13 mg/dL | TOTAL PROTEIN (Rattus norvegicus [2]; [4]): 6.33 G/DL | URIC ACID (Rattus norvegicus [2]; [4]): 1.03 mg/dL

c1ccncc1 [PYRIDINE]
ABSOLUTE BASOPHIL (Rattus norvegicus [1]; [5]): 0 CELLS/uL | ABSOLUTE EOSINOPHIL (Rattus norvegicus [1]; [5]): 117.17 CELLS/uL | ABSOLUTE LYMPHOCYTE (Rattus norvegicus [1]; [5]): 12774.17 CELLS/uL | ABSOLUTE MONOCYTE (Rattus norvegicus [1]; [5]): 419 CELLS/uL | ABSOLUTE SEGMENTED NEUTROPHIL (Rattus norvegicus [1]; [5]): 2139.67 CELLS/uL | BASOPHIL (Rattus norvegicus [1]; [5]): 0% | EOSINOPHIL (Rattus norvegicus [1]; [5]): 0.67% | ERYTHROCYTE COUNT (Rattus norvegicus [1]; [5]): 6.61 x10E6/uL | HEMATOCRIT (Rattus norvegicus [1]; [5]): 37.58% | HEMOGLOBIN (Rattus norvegicus [1]; [5]): 13.8 G/DL | LEUKOCYTE COUNT (Rattus norvegicus [1]; [5]): 15.45 x10E3/uL | LYMPHOCYTE (Rattus norvegicus [1]; [5]): 83% | MEAN CORPUSCULAR HEMOGLOBIN (Rattus norvegicus [1]; [5]): 20.87 pg | MEAN CORPUSCULAR HEMOGLOBIN CONCENTRATION (Rattus norvegicus [1]; [5]): 36.72 G/DL | MEAN CORPUSCULAR VOLUME (Rattus norvegicus [1]; [5]): 56.85 fL | MONOCYTE (Rattus norvegicus [1]; [5]): 2.67% | NEUTROPHIL (Rattus norvegicus [1]; [5]): 13.67% | NUCLEATED RED BLOOD CELLS (Rattus norvegicus [1]; [5]): 0 /100WBC | PLATELET COUNT (Rattus norvegicus [1]; [5]): 1108.33 x10E3/uL | ALANINE AMINOTRANSFERASE (Rattus norvegicus [1]; [6]): 56.83 u/L | ALBUMIN (Rattus norvegicus [1]; [6]): 4.18 G/DL | ALKALINE PHOSPHATASE (Rattus norvegicus [1]; [6]): 354.33 u/L | ASPARTATE AMINOTRANSFERASE (Rattus norvegicus [1]; [6]): 93.33 u/L | BLOOD UREA NITROGEN (Rattus norvegicus [1]; [6]): 16.67 mg/dL | CARBON DIOXIDE (Rattus norvegicus [1]; [6]): 27.83 mmol/L | CHLORIDE (Rattus norvegicus [1]; [6]): 102.17 MEQ/L | CHOLESTEROL (Rattus norvegicus [1]; [6]): 62.33 mg/dL | CREATININE (Rattus norvegicus [1]; [6]): 0.2 mg/dL | GLUCOSE (Rattus norvegicus [1]; [6]): 137 mg/dL | LACTATE DEHYDROGENASE (Rattus norvegicus [1]; [6]): 407 u/L | LIPASE (Rattus norvegicus [1]; [6]): 10.83 u/L | PHOSPHORUS (Rattus norvegicus [1]; [6]): 11.45 mg/dL | POTASSIUM (Rattus norvegicus [1]; [6]): 6.51 MEQ/L | SODIUM (Rattus norvegicus [1]; [6]): 145.57 MEQ/L | TOTAL BILIRUBIN (Rattus norvegicus [1]; [6]): 0.2 mg/dL | TOTAL PROTEIN (Rattus norvegicus [1]; [6]): 6.3 G/DL | URIC ACID (Rattus norvegicus [1]; [6]): 1.93 mg/dL | ABSOLUTE EOSINOPHIL (Rattus norvegicus [2]; [5]): 91.83 CELLS/uL | ABSOLUTE LYMPHOCYTE (Rattus norvegicus [2]; [5]): 13862.33 CELLS/uL | ABSOLUTE MONOCYTE (Rattus norvegicus [2]; [5]): 437.83 CELLS/uL | ABSOLUTE SEGMENTED NEUTROPHIL (Rattus norvegicus [2]; [5]): 1358 CELLS/uL | BASOPHIL (Rattus norvegicus [2]; [5]): 0% | EOSINOPHIL (Rattus norvegicus [2]; [5]): 0.5% | ERYTHROCYTE COUNT (Rattus norvegicus [2]; [5]): 5.12 x10E6/uL | HEMATOCRIT (Rattus norvegicus [2]; [5]): 31.77% | HEMOGLOBIN (Rattus norvegicus [2]; [5]): 11.8 G/DL | LEUKOCYTE COUNT (Rattus norvegicus [2]; [5]): 15.75 x10E3/uL | LYMPHOCYTE (Rattus norvegicus [2]; [5]): 88.33% | MEAN CORPUSCULAR HEMOGLOBIN (Rattus norvegicus [2]; [5]): 23.07 pg | MEAN CORPUSCULAR HEMOGLOBIN CONCENTRATION (Rattus norvegicus [2]; [5]): 37.17 G/DL | MEAN CORPUSCULAR VOLUME (Rattus norvegicus [2]; [5]): 62.15 fL | MONOCYTE (Rattus norvegicus [2]; [5]): 2.67% | NEUTROPHIL (Rattus norvegicus [2]; [5]): 8.5% | NUCLEATED RED BLOOD CELLS (Rattus norvegicus [2]; [5]): 0 /100WBC | PLATELET COUNT (Rattus norvegicus [2]; [5]): 1113.83 x10E3/uL | ALANINE AMINOTRANSFERASE (Rattus norvegicus [2]; [6]): 45.5 u/L | ALBUMIN (Rattus norvegicus [2]; [6]): 4.07 G/DL | ALKALINE PHOSPHATASE (Rattus norvegicus [2]; [6]): 343.83 u/L | ASPARTATE AMINOTRANSFERASE (Rattus norvegicus [2]; [6]): 70.67 u/L | BLOOD UREA NITROGEN (Rattus norvegicus [2]; [6]): 13 mg/dL | CARBON DIOXIDE (Rattus norvegicus [2]; [6]): 33 mmol/L | CHLORIDE (Rattus norvegicus [2]; [6]): 100.33 MEQ/L | CHOLESTEROL (Rattus norvegicus [2]; [6]): 76.67 mg/dL | CREATININE (Rattus norvegicus [2]; [6]): 0.12 mg/dL | GLUCOSE (Rattus norvegicus [2]; [6]): 148.67 mg/dL | LACTATE DEHYDROGENASE (Rattus norvegicus [2]; [6]): 116.67 u/L | LIPASE (Rattus norvegicus [2]; [6]): 8 u/L | PHOSPHORUS (Rattus norvegicus [2]; [6]): 12.58 mg/dL | POTASSIUM (Rattus norvegicus [2]; [6]): 6.33 MEQ/L | SODIUM (Rattus norvegicus [2]; [6]): 142.88 MEQ/L | TOTAL BILIRUBIN (Rattus norvegicus [2]; [6]): 0.18 mg/dL | TOTAL PROTEIN (Rattus norvegicus [2]; [6]): 5.77 G/DL | URIC ACID (Rattus norvegicus [2]; [6]): 1.27 mg/dL
